Reference: patent publication US20140057895A1, “INDAZOLE- AND PYRROLOPYRIDINE-DERIVATIVE AND PHARMACEUTICAL USE THEREOF” (priority 2011, published 2014)

Key:
[1] = biological target: T1, Human 5-HT4 receptor (5-HT4b) (Homo sapiens, UniProt Q13639); assay: Test Example 3: Human 5-HT4 receptor binding assay, membranes of CHO-K1 cells stably expressing 5-HT4b receptors (Table 99); conditions: mean value of each group
T1 construct: expressed in transfected cells; membrane preparation
Experimental: To an assay tube were added 0.1 nM [^3H]-GR113808 {chemical name: [1-[2-(methylsulfonylamino) ethyl]-4-piperidinyl]methyl 1-methylindole-3-carboxylate}, receptor membrane preparations, and Hepes buffer (50 mM, pH 7.4, 4° C., 1 ml) containing test compounds or 30 μM serotonin; and the mixture was incubated at 37° C. for 30 minutes. On quenching the reaction, the mixture was rapidly filtered on whatman GF/B filter, which was presoaked in 0.1% polyethyleneimine for 1 hour, by using Brandel cell Harvester, and washed with ice-cooled 50 mM Tris-HCl (pH 7.7, 4 ml) three times. To the filter after filtration was added a liquid scintillator (Ecoscint), and then a radioactivity was determined by a liquid scintillation counter.
50% Inhibition concentrations (IC50) were determined from inhibition rates of test compounds to specific bindings which were obtained by subtracting nonspecific bindings from total binding amounts of [^3H]-GR113808.
Human 5-HT4 receptor membrane preparations were prepared from CHO-K^1 cells which stably express 5-HT4b receptors, and human 5-HT4 receptor binding assay was carried out in a similar manner as in the guinea pig 5-HT4 receptor binding assay. The following tables show results of serotonin 4 (5-HT4) receptor binding assay. In the following tables, the compounds used in the test are shown in numbers which correspond to the Example numbers above where the preparations of the compounds are described.

human 5-HT4b receptor = biological target: T2, human 5-HT4b receptor (Homo sapiens, UniProt Q13639); assay: Test Example 4: Serotonin 4 (5-HT4) receptor agonist activity assay, cAMP HTRF in CHO cells (Table 100); format: cell-based; conditions: mean value; for Emax: CHO, 0.25 h, intrinsic activity, maximal activity of 5-HT defined as 100%, read-out: IA (%); for EC50: concentration showing 50% of IA
T2 construct: expressed in transfected cells; host or cells: CHO cells (G418 selection)
How it was run: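 CHO cells expressing human 5-HT4b receptor, serum-reduced for 1–2 h, were suspended in Hanks/HEPES pH 7.4 and exposed to compound for 15 min at 31° C. cAMP detected by HTRF (cryptate/d2, 1 h RT, 620/665 nm). EC50 and intrinsic activity relative to maximal 5-HT response (10^−11 to 10^−7 M) set at 100%.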

T1 sequence (Q13639 whole entry): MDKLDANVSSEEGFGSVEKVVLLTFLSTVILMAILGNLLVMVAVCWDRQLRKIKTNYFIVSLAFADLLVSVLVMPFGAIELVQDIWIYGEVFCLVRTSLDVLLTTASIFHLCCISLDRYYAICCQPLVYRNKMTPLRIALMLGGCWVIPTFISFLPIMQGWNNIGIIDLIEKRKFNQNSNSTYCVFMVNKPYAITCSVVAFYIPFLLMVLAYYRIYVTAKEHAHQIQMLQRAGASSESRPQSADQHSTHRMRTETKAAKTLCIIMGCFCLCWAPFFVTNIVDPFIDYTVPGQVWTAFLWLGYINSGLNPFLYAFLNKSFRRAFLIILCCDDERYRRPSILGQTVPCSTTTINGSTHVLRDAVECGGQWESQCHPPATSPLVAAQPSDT
T2 sequence (Q13639 whole entry): as above

Compound | IC50 [1] | Emax (human 5-HT4b receptor) | EC50 (human 5-HT4b receptor)
CC(C)c1nn(-c2noc(C[C@H]3CCN(C[C@@H]4CCCN4C(=O)CO)C3)n2)c2c(F)cccc12 [Example 540, 1-[(2S)-2-{[(3R)-3-({3-[7-fluoro-3-(propan-2-yl)-1H-indazol-1-yl]-1,2,4-oxadiazol-5-yl}methyl)pyrrolidin-1-yl]methyl}pyrrolidin-1-yl]-2-hydroxyethanone] | 78.1 nM | 106% | 15.3 nM
CC(=O)NCCCN[C@H]1C[C@@H](c2nc(-n3nc(C(C)C)c4cccc(F)c43)no2)C1 [Example 566] | < 20 nM | 90% | 3.1 nM
CC(C)c1nn(-c2noc(C3CC(NCC4CCOCC4)C3)n2)c2c(F)cccc12 (stereo not drawn) [Example 610, 3-{3-[7-fluoro-3-(propan-2-yl)-1H-indazol-1-yl]-1,2,4-oxadiazol-5-yl}-N-(tetrahydro-2H-pyran-4-ylmethyl)cyclobutanamine] | < 20 nM | 103% | 9.1 nM
CC(C)c1nn(-c2noc(C[C@H]3CCN(C4CCN(S(C)(=O)=O)CC4)C3)n2)c2c(F)cccc12 [Example 496, 7-fluoro-1-[5-({(3R)-1-[1-(methylsulfonyl)piperidin-4-yl]pyrrolidin-3-yl}methyl)-1,2,4-oxadiazol-3-yl]-3-(propan-2-yl)-1H-indazole] | < 20 nM | 70% | 2.2 nM
CC(C)c1nn(-c2noc(C3CC(NC4CCOCC4)C3)n2)c2c(F)cccc12 (stereo not drawn) [Example 595, N-(3-{3-[7-fluoro-3-(propan-2-yl)-1H-indazol-1-yl]-1,2,4-oxadiazol-5-yl}cyclobutyl)tetrahydro-2H-pyran-4-amine] | < 20 nM | 93% | 6.9 nM
Cc1nn(-c2noc(C3CCN(C4CCN(C(=O)CO)CC4)CC3)n2)c2c(F)cccc12 [Example 525, 1-{4-[3-(7-fluoro-3-methyl-1H-indazol-1-yl)-1,2,4-oxadiazol-5-yl]-1,4′-bipiperidin-1′-yl}-2-hydroxyethanone] | < 20 nM | 86% | 18.1 nM
CC(=O)NCCN(C1CCOCC1)C1CC(c2nc(-n3nc(C(C)C)c4cccc(F)c43)no2)C1 (stereo not drawn) [Example 611, N-{2-[(3-{3-[7-fluoro-3-(propan-2-yl)-1H-indazol-1-yl]-1,2,4-oxadiazol-5-yl}cyclobutyl)(tetrahydro-2H-pyran-4-yl)amino]ethyl}acetamide] | 95.9 nM | 94% | 42.2 nM
CC(C)c1nn(-c2noc(C[C@@H]3CCN(CC4CN(C(=O)CO)C4)C3)n2)c2c(F)cccc12 [Example 548, 1-(3-{[(3S)-3-({3-[7-fluoro-3-(propan-2-yl)-1H-indazol-1-yl]-1,2,4-oxadiazol-5-yl}methyl)pyrrolidin-1-yl]methyl}azetidin-1-yl)-2-hydroxyethanone] | < 20 nM | 73% | 6.4 nM
CC(C)c1nn(-c2noc(C3CCN(C4(C)CCN(C(=O)N(C)C)CC4)CC3)n2)c2c(F)cccc12 [Example 489, 4-{3-[7-fluoro-3-(propan-2-yl)-1H-indazol-1-yl]-1,2,4-oxadiazol-5-yl}-N,N,4′-trimethyl-1,4′-bipiperidine-1′-carboxamide] | < 20 nM | 104% | 2.5 nM
CC(C)c1nn(-c2noc(C[C@@H]3CCN(C[C@@H]4CCN(C(=O)CO)C4)C3)n2)c2c(F)cccc12 [Example 549, 1-[(3S)-3-{[(3S)-3-({3-[7-fluoro-3-(propan-2-yl)-1H-indazol-1-yl]-1,2,4-oxadiazol-5-yl}methyl)pyrrolidin-1-yl]methyl}pyrrolidin-1-yl]-2-hydroxyethanone] | < 20 nM | 91% | 5.6 nM
CC(C)c1nn(-c2noc([C@H]3CC[C@@H](NCCC4CN(S(C)(=O)=O)C4)CC3)n2)c2c(F)cccc12 [Example 617, cis-4-{3-[7-fluoro-3-(propan-2-yl)-1H-indazol-1-yl]-1,2,4-oxadiazol-5-yl}-N-{2-[1-(methylsulfonyl)azetidin-3-yl]ethyl}cyclohexanamine] | 24.3 nM | 104% | 8.4 nM
